According to PMC10709440, “High-throughput ligand profile characterization in novel cell lines expressing seven heterologous insect olfactory receptors for the detection of volatile plant biomarkers” (Scientific Reports, 2023):
Read-outs that look alike come from different tables or passages of the source.

Tests used:
[1] = biological target: T1, Drosophila OR85b (Drosophila melanogaster, UniProt Q9VHQ7); experiment: Calcium ion fluorescence (GCaMP6) assay, OR85b stable HEK293 cell line; assay type: cell-based; conditions: for Average response: VUAA1-normalized response, mean of biological replicates
T1 construct: expressed in transfected cells
T1 sequence (Q9VHQ7 1-390): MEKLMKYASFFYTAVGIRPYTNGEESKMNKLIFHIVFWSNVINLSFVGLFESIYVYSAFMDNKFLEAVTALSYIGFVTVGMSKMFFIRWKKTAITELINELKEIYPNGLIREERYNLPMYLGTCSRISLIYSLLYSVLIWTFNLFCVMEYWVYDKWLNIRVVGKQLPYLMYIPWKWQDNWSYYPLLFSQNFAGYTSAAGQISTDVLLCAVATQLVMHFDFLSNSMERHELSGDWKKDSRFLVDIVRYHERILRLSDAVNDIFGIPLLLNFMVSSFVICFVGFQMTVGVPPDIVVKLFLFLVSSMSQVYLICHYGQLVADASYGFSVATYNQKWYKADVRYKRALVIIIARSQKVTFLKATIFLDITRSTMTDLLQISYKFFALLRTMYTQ
T1 sequence (Q9VNB5 1-486 partner): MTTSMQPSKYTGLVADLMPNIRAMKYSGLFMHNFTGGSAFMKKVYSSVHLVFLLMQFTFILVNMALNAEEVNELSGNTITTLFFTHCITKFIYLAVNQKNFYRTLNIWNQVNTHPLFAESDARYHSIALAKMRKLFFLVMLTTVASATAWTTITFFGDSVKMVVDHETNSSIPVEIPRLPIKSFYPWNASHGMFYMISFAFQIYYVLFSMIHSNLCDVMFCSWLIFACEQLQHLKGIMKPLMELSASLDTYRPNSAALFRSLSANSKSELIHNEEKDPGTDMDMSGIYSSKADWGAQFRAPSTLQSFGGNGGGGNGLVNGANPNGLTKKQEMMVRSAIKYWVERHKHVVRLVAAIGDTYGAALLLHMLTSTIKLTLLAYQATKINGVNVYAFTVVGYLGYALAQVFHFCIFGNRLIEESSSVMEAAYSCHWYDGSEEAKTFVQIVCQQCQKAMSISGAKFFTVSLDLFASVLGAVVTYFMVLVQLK
In short: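 HEK293 lines stably expressing each Drosophila OR with GCaMP6, doxycycline-induced (1 μg/mL) 48 or 72 h. Fluorescence recorded 5 s baseline then 30 s after VOC injection at pH 7.3; ΔF=(FMAX−F0)/F0, normalized to 50 µM VUAA1 response per line, triplicate wells averaged; concentration series 0.01–100 μM.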

[2] = system: OR10a; set-up: method as in earlier work; conditions: DoOR database value, ref DoOR, cited from earlier work
[3] = system: OR13a; set-up: method as in earlier work; conditions: DoOR database value, ref DoOR, cited from earlier work
[4] = system: OR47a; set-up: method as in earlier work; conditions: DoOR database value; ref DoOR; cited from earlier work
[5] = system: OR49b; set-up: method as in earlier work; conditions: DoOR database value; ref DoOR; cited from earlier work
[6] = system: OR85b; set-up: method as in earlier work; conditions: DoOR database value; ref DoOR; cited from earlier work
[7] = system: OR98a; set-up: method as in earlier work; conditions: DoOR database value; ref DoOR; cited from earlier work
[8] = HEK293, read-out: OR85b response (VUAA1-normalized response)
[9] = concentration 1, normalized fluorescence change, values below 0.05 threshold given as 0
[10] = concentration 10, normalized fluorescence change, values below 0.05 threshold given as 0
[11] = concentration 100, normalized fluorescence change, values below 0.05 threshold given as 0
[12] = ligand concentration 1 (unit not given), threshold 0.05, below shown as 0
[13] = ligand concentration 10 (unit not given), threshold 0.05, below shown as 0
[14] = ligand concentration 100 (unit not given), threshold 0.05, below shown as 0
[15] = HEK293, read-out: OR85b Average response (VUAA1-normalized)

SMILES | activation at 1 µM [1, 8] [%] | activation at 10 µM [1, 8] [%] | activation at 100 µM [1, 8] [%] | Average response ([1]; OR85b cell line, cc. 1 µM) | Average response ([1]; OR85b cell line, cc. 10 µM) | Average response ([1]; OR85b cell line, cc. 100 µM) | DF norm AVERAGE OR85b [1, 9] | DF norm AVERAGE OR85b [1, 10] | DF norm AVERAGE OR85b [1, 11] | OR10a DoOR response [2] | OR13a DoOR response [3] | OR47a DoOR response [4] | OR49b DoOR response [5] | OR85b DoOR response [6] | OR98a DoOR response [7] | also measured
C=C1CC/C=C(\C)CC[C@@H]2[C@@H]1CC2(C)C [(-)-trans-caryophyllene] | 0 | 0 | 0 | 0.00 | 0.00 | 0.0238 | 0 | 0 | 0 | -0.002 | 0.0851 | -0.002 | 0.001 | 0.053 | -0.004 | –
CCCCOC(C)=O [butyl acetate] | 0 | 0 | 0 | 0.00 | 0.00 | 0.00 | – | – | – | 0.27 | 0.31 | 0.77 | 0.035 | 0.78 | 0.70 | DF norm AVERAGE OR85b [1, 12]: 0; DF norm AVERAGE OR85b [1, 13]: 0; DF norm AVERAGE OR85b [1, 14]: 0
CCCCCC(C)O (stereo not shown) [2-heptanol] | 0 | 0 | 32 | 0.0455 | 0.05 | 0.32 | 0 | 0 | 0.3169 | 0.009 | 0.67 | – | – | – | – | activation at 1 µM [1, 15]: 5%; activation at 10 µM [1, 15]: 5%; activation at 100 µM [1, 15]: 32%
CC/C=C\CCOC(C)=O [Z-3-hexenyl acetate] | – | – | – | – | – | – | – | – | – | – | – | – | – | – | – | OR85b response (VUAA1-normalized) at 1 μM ([1]; OR85b cell line, VOC concentration 1 μM): 0.15; OR85b response (VUAA1-normalized) at 10 μM ([1]; OR85b cell line, VOC concentration 10 μM): 0.00; OR85b response (VUAA1-normalized) at 100 μM ([1]; OR85b cell line, VOC concentration 100 μM): 0.00; OR10a DoOR response ([2]; OR10a): 0.004; OR13a DoOR response ([3]; OR13a): 0.42
CCCCC(C)O (stereo not shown) [2-hexanol] | 0 | 0 | 0 | 0.05 | 0.00 | 0.00 | 0 | 0 | 0 | 0.14 | 0.58 | – | – | – | – | –
CCCCC(C)=O [2-hexanone] | 0 | 6 | 0 | 0.00 | 0.06 | 0.0338 | 0 | 0.05777 | 0 | 0.10 | 0.13 | – | – | – | – | –
C=C(C)[C@H]1CC=C(C)CC1 [(R)-(+)-limonene] | – | – | – | 0.0426 | 0.03 | 0.00 | 0 | 0 | 0 | 0.07 | 0.057 | – | 0.03 | 0.034 | 0.085 | OR85b response (VUAA1-normalized response) ([1]; VOC concentration 1 μM): 0.00; OR85b response (VUAA1-normalized response) ([1]; VOC concentration 10 μM): 0.00; OR85b response (VUAA1-normalized response) ([1]; VOC concentration 100 μM): 0.00
CCCCCCCO [1-heptanol] | 0 | 0 | 0 | 0.00 | 0.00 | 0.00 | 0 | 0 | 0 | – | 0.28 | 0.095 | – | – | – | –
C=C(C)[C@H]1CC=C(C)CC1 [limonene] | – | – | – | 0.07 | 0.09 | 0.0644 | – | – | – | -0.001 | – | 0.056 | 0.016 | 0.10 | 0.09 | OR85b response (VUAA1-normalized response) ([1]; VOC concentration 1 μM): 0.07; OR85b response (VUAA1-normalized response) ([1]; VOC concentration 10 μM): 0.09; OR85b response (VUAA1-normalized response) ([1]; VOC concentration 100 μM): 0.0644; DF norm AVERAGE OR85b [1, 12]: 0.07022; DF norm AVERAGE OR85b [1, 13]: 0.08814; DF norm AVERAGE OR85b [1, 14]: 0.06443
CC1=CCC2C(C1)C2(C)C (stereo not shown) [3-carene] | 0 | 0 | 0 | 0.00 | 0.00 | 0.00 | 0 | 0 | 0 | -0.005 | – | -0.002 | 0.002 | -0.008 | -0.009 | –
